From the CombiSolv-Exp solvation set (Vermeire and Green 2021)

Test: solvent given as SMILES

O
Conditions	solvation free energy, 298 K [kcal/mol]
in BrC(Br)Br	-1.76
in BrC(Br)C(Br)Br	-1.63
in BrCCBr	-1.98
in C1CCCCC1	-0.54
in C1COCCO1	-4.37
in C=CCCCCCCC=C	-1.19
in C=CCCCCCCCCCCCCCC	-0.63
in CC(C)=O	-4.34
in CC(C)C	-0.64
in CC(C)C(C)C	-0.56
in CC(C)C(C)C(C)C	-0.49
in CC(C)CC(C)(C)C	-0.52
in CC(C)CC(C)C	-0.51
in CC(C)CCC(C)(C)C	-0.49
in CCC	-0.66
in CCC(C)(C)C	-0.51
in CCC(C)=O	-4.02
in CCC(C)C	-0.56
in CCC(C)CC	-0.59
in CCCC(C)C	-0.55
in CCCC(C)CC	-0.47
in CCCCC	-0.64
in CCCCC(=O)CC	-3.3
in CCCCCC	-0.67
in CCCCCCC	-0.72
in CCCCCCCC	-0.73
in CCCCCCCCC	-0.53
in CCCCCCCCCC	-0.48
in CCCCCCCCCCC	-0.47
in CCCCCCCCCCCC	-0.44
in CCCCCCCCCCCCC	-0.4
in CCCCCCCCCCCCCCCC	-0.42
in CCCCCCCCCCO	-3.98
in CCCCCCCCO	-4.15
in CCCCO	-4.5
in CCCCOCCO	-4.6
in CCCO	-4.76
in CCCOCC(C)O	-4.29
in CCO	-5.05
in CN(C)C=O	-5.55
in CNC(C)=O	-5.8
in CNC=O	-5.28
in CO	-5.59
in ClC(Cl)(Cl)Cl	-1.15
in ClC(Cl)=C(Cl)Cl	-1.15
in NC=O	-5.67
in S=C=S	-1.01

COc1cc(Cl)c(Cl)c(Cl)c1Cl
Conditions	solvation free energy, 298 K [kcal/mol]
in O	-2.55

CC1CCCC(O)C1 (configuration not stated)
Conditions	solvation free energy, 298 K [kcal/mol]
in O	-5.21

Clc1ccc(-c2c(Cl)c(Cl)cc(Cl)c2Cl)cc1Cl
Conditions	solvation free energy, 298 K [kcal/mol]
in O	-4.38

CF
Conditions	solvation free energy, 298 K [kcal/mol]
in CCCO	0.03
in O	-0.22

COc1cc(C=O)c(Cl)c(OC)c1O
Conditions	solvation free energy, 298 K [kcal/mol]
in O	-7.78

CN1CCN(C)CC1
Conditions	solvation free energy, 298 K [kcal/mol]
in O	-7.58

c1ccc(CCc2ccccc2)cc1
Conditions	solvation free energy, 298 K [kcal/mol]
in CCCCCCCCO	-8.8

Cc1cc2ccccc2cc1C
Conditions	solvation free energy, 298 K [kcal/mol]
in CCCCCCCCC=CCCCCCCCC(=O)OCC(COC(=O)CCCCCCCC=CCCCCCCCC)OC(=O)CCCCCCCC=CCCCCCCCC	-8.95
in O	-2.72

CC(C)C
Conditions	solvation free energy, 298 K [kcal/mol]
in C1CCC2CCCCC2C1	-2
in CC1COC(=O)O1	-0.87
in CC(C)(C)O	-1.86
in CC(C)=O	-1.87
in CC(C)CCO	-1.8
in CC(C)CO	-1.8
in CC(C)O	-1.9
in CCC(C)(C)O	-1.92
in CCC(C)CO	-1.8
in CCC(C)O	-1.79
in CCC(O)CC	-1.83
in CCCC(C)O	-1.8
in CCCCC	-2.38
in CCCCCC	-2.33
in CCCCCCC	-2.31
in CCCCCCCC	-2.3
in CCCCCCCCC	-2.2
in CCCCCCCCCC	-2.23
in CCCCCCCCCCCCCCCC	-1.91
in CCCCCCCO	-1.68
in CCCCCO	-1.79
in CCCCO	-1.91
in CCCO	-1.77
in CCO	-1.64
in CCOC(C)=O	-2.16
in CCOCC	-2.33
in CN1CCCC1=O	-1.2
in CN(C)C=O	-1.32
in CN(C)P(=O)(N(C)C)N(C)C	-1.53
in CO	-1.46
in COCCOCCOCCOC	-1.18
in CS(C)=O	-0.53
in Cc1ccc(C)cc1	-2.06
in Cc1cccc(C)c1	-2.07
in Cc1ccccc1C	-2.04
in ClC(Cl)(Cl)Cl	-2.37
in Clc1ccccc1	-2.25
in Nc1ccccc1	-1.07
in O	2.32
in O=CN1CCOCC1	-0.64
in OC1CCCCC1	-1.55
in OCCCOCCCO	-0.87
in OCCO	-0.19
in OCc1ccccc1	-1.16
in c1ccccc1	-2.08

CC(C)NC(C)C
Conditions	solvation free energy, 298 K [kcal/mol]
in O	-3.22

O=C1CCCO1
Conditions	solvation free energy, 298 K [kcal/mol]
in CC(C)CC(C)(C)C	-4.99

CCc1cccc(O)c1
Conditions	solvation free energy, 298 K [kcal/mol]
in O	-6.25

C=CCCCCCCCCCC
Conditions	solvation free energy, 298 K [kcal/mol]
in CN(C)C=O	-6.25
in O	2.58

CC(C)=CCCC(C)CCCC(C)CCCC(C)C (configuration not stated)
Conditions	solvation free energy, 298 K [kcal/mol]
in O	3.72

NC(N)=S
Conditions	solvation free energy, 298 K [kcal/mol]
in CCCCCCO	-9.57
in CCCCCO	-9.72
in CCCCO	-9.97
in CCCO	-10.2
in CCO	-10.6

COP(=S)(OC)SCn1nnc2ccccc2c1=O
Conditions	solvation free energy, 298 K [kcal/mol]
in O	-10

NC(N)=O
Conditions	solvation free energy, 298 K [kcal/mol]
in O	-13.6

O=[O+][O-]
Conditions	solvation free energy, 298 K [kcal/mol]
in COC(C)=O	-0.29
in O	0.82

CCCCCCCCO
Conditions	solvation free energy, 298 K [kcal/mol]
in CC(C)CC(C)(C)C	-6.52
in CCC(C)=O	-8.2
in CCCCCCC	-6.38
in CCCCCCCCCCCCCCCC	-6.17
in CCCCCCCCCO	-8.45
in CCCCCCO	-8.58
in CCCCCl	-7.22
in CO	-8.03
in NC=O	-6.49
in O	-4.07
